Molecular target: T1, recombinant GisA, SAUSA300_0200 (Staphylococcus aureus, UniProt A0A0H2XI71)
T1 construct: His-tagged, pET28b, purified from E. coli slyD mutant by Ni-NTA; ATPase subunit alone
T1 sequence (A0A0H2XI71 1-530): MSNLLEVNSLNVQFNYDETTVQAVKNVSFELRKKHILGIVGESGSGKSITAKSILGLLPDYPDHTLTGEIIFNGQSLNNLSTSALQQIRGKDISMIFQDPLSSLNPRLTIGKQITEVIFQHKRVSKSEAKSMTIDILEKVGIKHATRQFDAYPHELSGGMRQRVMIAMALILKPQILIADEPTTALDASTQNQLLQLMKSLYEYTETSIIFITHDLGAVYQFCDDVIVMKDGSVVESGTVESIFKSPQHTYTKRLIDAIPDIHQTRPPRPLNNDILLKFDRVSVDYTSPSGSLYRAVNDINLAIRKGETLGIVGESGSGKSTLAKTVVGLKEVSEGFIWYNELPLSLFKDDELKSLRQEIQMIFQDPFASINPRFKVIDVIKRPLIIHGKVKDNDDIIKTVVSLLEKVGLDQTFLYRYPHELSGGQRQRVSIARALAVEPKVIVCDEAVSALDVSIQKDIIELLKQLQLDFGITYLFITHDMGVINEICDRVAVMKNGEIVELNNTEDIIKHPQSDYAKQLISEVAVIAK
Experiment: ATP hydrolysis assay
Format: biochemical
Conditions: GisA alone; details only in supplement

Nc1ncnc2c1ncn2[C@@H]1O[C@H](COP(=O)(O)OP(=O)(O)OP(=O)(O)O)[C@@H](O)[C@H]1O [ATP]
ATP hydrolysis assay: recombinant GisA purified from Escherichia coli exhibits ATP hydrolysis activity

From PMC10355420, “The glutathione import system satisfies the Staphylococcus aureus nutrient sulfur requirement and promotes interspecies competition” (PLOS Genetics, 2023)
